Counter-ions that a name gives are not always drawn.
Legend:
[1] = Selectivity index for antiviral vs cytotoxic effect in Vero E6 cells (CC50/EC50); type: toxicity, cell-based, Vero C1008; conditions: monkey, read-out: Selectivity index
[2] = Cytotoxicity (CC50) determination in Vero E6 cells measured by fluorescence (OD590nm); type: toxicity, cell-based; conditions: chlorocebus sabaeus, Vero E6 cells (Vero C1008)
[3] = test system: SARS-CoV-2; assay: Antiviral efficacy against SARS-CoV-2 (strain BavPat1) in Vero E6 cells assessed by inhibition of viral RNA replication measured by RT-PCR after 2 days; type: functional, organism-based, Chlorocebus sabaeus; conditions: Severe acute respiratory syndrome coronavirus 2, Vero C1008, 48 h
[4] = test system: SARS-CoV-2; assay: Inhibition of cell viability relative to arbidol control (inhibition index > 1 indicates higher activity) measured by fluorescence (OD590nm) in Vero E6 cells infected with SARS-CoV-2 (strain BavPat1) at MOI 0.002 after 72hrs; type: functional; conditions: Chlorocebus sabaeus; Vero C1008

| Compound | selectivity ratio [1] | CC50 [2] | EC50 [3] | EC90 [3] | Inhibition index [4] |
| --- | --- | --- | --- | --- | --- |
| Clc1ccc(Cn2c(CN3CCCC3)nc3ccccc32)cc1 | > 1.7 | > 40 µM | 23.9 µM | 38.2 µM |  |
| CC(C)CN(C[C@@H](O)[C@H](Cc1ccccc1)NC(=O)O[C@H]1CO[C@H]2OCC[C@H]21)S(=O)(=O)c1ccc(N)cc1 |  |  | > 40 µM |  |  |
| C=C[C@H]1CN2CC[C@H]1C[C@@H]2[C@@H](O)c1ccnc2ccc(OC)cc12 | > 7.8 | > 40 µM | 5.11 µM | > 40 µM |  |
| COC(c1ccccc1)(c1ccccc1)C(Oc1nc(C)cc(C)n1)C(=O)O (configuration not stated) |  |  | > 40 µM |  |  |
| CCCCC[C@H](O)/C=C/[C@H]1[C@H](O)CC(=O)[C@@H]1CCCCCCC(=O)O [ALPROSTADIL] | > 7.4 | > 40 µM | 5.39 µM | 62.4 µM |  |
| CC[C@H]1OC(=O)[C@H](C)[C@@H](O[C@H]2C[C@@](C)(OC)[C@@H](O)[C@H](C)O2)[C@H](C)[C@@H](O[C@@H]2O[C@H](C)C[C@H](N(C)C)[C@H]2O)[C@](C)(O)C[C@@H](C)CN(C)[C@H](C)[C@@H](O)[C@]1(C)O [AZITHROMYCIN] | > 19 | > 40 µM | 2.12 µM |  |  |
| C[C@@H]1CCO[C@H]2Cn3cc(C(=O)NCc4ccc(F)cc4F)c(=O)c(O)c3C(=O)N12 [DOLUTEGRAVIR] | > 1.8 | > 40 µM | 22 µM | 42.8 µM |  |
| CCN(CCO)CCCC(C)Nc1ccnc2cc(Cl)ccc12 (configuration not stated) [HYDROXYCHLOROQUINE SULFATE] | > 10 | > 40 µM | 4.17 µM |  |  |
| CC(C)(C)NC[C@H](O)c1ccc(O)c(CO)c1 [LEVALBUTEROL HYDROCHLORIDE] |  |  | > 40 µM |  |  |
| CCCc1nc(C(C)(C)O)c(C(=O)OCc2oc(=O)oc2C)n1Cc1ccc(-c2ccccc2-c2nnn[nH]2)cc1 [OLMESARTAN MEDOXOMIL] |  |  | > 40 µM |  |  |
| COc1ccc2[nH]c([S+]([O-])Cc3ncc(C)c(OC)c3C)nc2c1 (configuration not stated) [OMEPRAZOLE] |  | > 40 µM | 17.1 µM |  |  |
| OCCN1CCN(CCCN2c3ccccc3C=Cc3ccccc32)CC1 [OPIPRAMOL HYDROCHLORIDE] | > 7.9 | > 40 µM | 5.05 µM |  |  |
| C=CCOc1ccccc1OCC(O)CNC(C)C (configuration not stated) [OXPRENOLOL HYDROCHLORIDE] | > 2 | > 40 µM | 20.2 µM | > 40 µM |  |
| COc1ccccc1OCC(O)CN1CCN(CC(=O)Nc2c(C)cccc2C)CC1 (configuration not stated) [RANOLAZINE] |  |  | > 40 µM |  |  |
| COc1ncnc(NS(=O)(=O)c2ccc(N)cc2)c1OC [SULFADOXINE] | > 1.13 | > 40 µM | 35.4 µM | 45.1 µM |  |
| CCOC(=O)c1c(CSc2ccccc2)n(C)c2cc(Br)c(O)c(CN(C)C)c12 [UMIFENOVIR] | > 3.7 | > 40 µM | 10.7 µM |  |  |
| CYANOCOBALAMIN |  |  |  |  | 0.0637 |
| Gramicidin |  |  |  |  | -0.249 |
| NEOMYCIN SULFATE |  |  |  |  | 0.0953 |
| Tyloxapol |  |  |  |  | 0.101 |

From ChEMBL document CHEMBL4303097 (2020)
